Experimental data from BigSolDB 2.1.

c1ccc2c(c1)CCc1ccccc1N2
solubility (mole fraction)
Conditions	283.15 K	288.15 K	293.15 K	298.15 K	303.15 K	308.15 K	313.15 K	318.15 K	323.15 K	328.15 K
in DMSO	–	–	0.0199	0.0239	0.0285	0.0336	0.0391	0.045	0.0516	0.0592
in ethanol	0.000769	0.00102	0.00136	0.00175	0.00227	0.00284	0.0036	0.00453	0.00558	0.00691
in ethylene glycol	0.000351	0.000427	0.000494	0.000566	0.000642	0.000722	0.000812	0.000905	0.00101	0.00111
in isopropanol	0.000448	0.000585	0.000783	0.000992	0.00127	0.00161	0.00204	0.00253	0.00314	0.00388
in water	8.4e-07	1.27e-06	1.83e-06	2.73e-06	3.77e-06	5.41e-06	7.42e-06	1.02e-05	1.39e-05	1.87e-05
